Tests used:
Test in all cases: Post-emergence herbicidal activity test (stem and leaf spray, pot culture)
Format in all cases: in vivo
Settings in all cases: 3 weeks after spraying
Abutilon theophrasti = test system: Abutilon theophrasti
Description: (§1) The weeds were cultivated in a 180 mm×140 mm plastic nutrient pot by a pot-culture method, placed in an enamel tray, and the plastic nutrient pots were filled with surface soil (⅘ of a depth) collected from a farmland and air-dried and sieved, and a soil humidity was controlled at 20% in the initial stage. Weed seeds with plump and uniform grains were selected, soaked in warm water at 25° C. for 6 h, and germinated in a biochemical incubator (dark) at 28° C. The freshly exposed weed seeds were evenly placed on the soil surface, and then covered with 0.5 cm to 1 cm of soil according to the size of the seeds. The weeds are cultivated in a controlled sunlight greenhouse at 20° C. to 30° C., under natural light, and a relative humidity of 57% to 72%. The soil was loam, including 1.63% of organic matters, with a pH value of 7, 84.3 mg/kg of alkaline nitrogen, 38.5 mg/kg of available phosphorus, and 82.1 mg/kg of available potassium.
(§2) Each treatment was repeated 2 times, each treatment included 12 pots, and 20 weed seeds were sown in each pot. Pesticide was applied in the test for 1 time in total. When the weeds grew to 1.5- to 2-leaf stage, thinning was conducted, with 10 weeds in each pot, and 30 weeds were kept in each treatment.
(§3) The cultivated weeds were placed on trays with an area of 0.1 m^2, and stems and leaves were sprayed with a sprayer. After applying a pesticide, the pesticide applied weeds were moved into a greenhouse for routine cultivation.
(§4) 2 weeks after sowing, the test plants were treated at the 2- to 3-leaf stage: the compounds of the present disclosure for testing were dissolved in acetone separately, and added with Tween 80, an emulsifiable oil of 1.5 liters/ha methyl oleate was added as a synergist, and an obtained mixture was diluted with certain water to a certain concentration solution. The solution was sprayed onto the plants using a spray tower. After spraying, the weeds were cultivated in the greenhouse for 3 weeks, and the experimental effects on the weeds were counted. The effective concentrations of the compounds were 10 g/mu, 5 g/mu, and 2.5 g/mu, the experiment was repeated three times, and an average result was taken.
(§5) The activity level criteria for plant destruction (i.e. growth control rate) are as follows: • Grade 5: the growth control rate is greater than or equal to 85%; • Grade 4: the growth control rate is greater than or equal to 60% and less than 85%; • Grade 3: the growth control rate is greater than or equal to 40% and less than 60%; • Grade 2: the growth control rate is greater than or equal to 20% and less than 40%; • Grade 1: the growth control rate is greater than or equal to 5% and less than 20%; and • Grade 0: the growth control rate is less than 5%.
(§6) The growth control rate is a fresh weight control rate.

Amaranthus retroflexus = test system: Amaranthus retroflexus
Description: as §1, §2, §3, §4, §5, §6

Echinochloa crusgalli = test system: Echinochloa crusgalli
Description: as §1, §2, §3, §4, §5, §6

Portulaca oleracea = test system: Portulaca oleracea
Description: as §1, §2, §3, §4, §5, §6

Setaria viridis = test system: Setaria viridis
Description: as §1, §2, §3, §4, §5, §6

Trifoliumre pensL. = test system: Trifoliumre pensL.
Description: (1) Post-Emergence Stem and Leaf Spray Treatment: The weeds were cultivated in a 180 mm×140 mm plastic nutrient pot by a pot-culture method, placed in an enamel tray, and the plastic nutrient pots were filled with surface soil (⅘ of a depth) collected from a farmland and air-dried and sieved, and a soil humidity was controlled at 20% in the initial stage. Weed seeds with plump and uniform grains were selected, soaked in warm water at 25° C. for 6 h, and germinated in a biochemical incubator (dark) at 28° C. The freshly exposed weed seeds were evenly placed on the soil surface, and then covered with 0.5 cm to 1 cm of soil according to the size of the seeds. The weeds are cultivated in a controlled sunlight greenhouse at 20° C. to 30° C., under natural light, and a relative humidity of 57% to 72%. The soil was loam, including 1.63% of organic matters, with a pH value of 7, 84.3 mg/kg of alkaline nitrogen, 38.5 mg/kg of available phosphorus, and 82.1 mg/kg of available potassium. Each treatment was repeated 2 times, each treatment included 12 pots, and 20 weed seeds were sown in each pot. Pesticide was applied in the test for 1 time in total. When the weeds grew to 1.5- to 2-leaf stage, thinning was conducted, with 10 weeds in each pot, and 30 weeds were kept in each treatment. The cultivated weeds were placed on trays with an area of 0.1 m^2, and stems and leaves were sprayed with a sprayer. After applying a pesticide, the pesticide applied weeds were moved into a greenhouse for routine cultivation. 2 weeks after sowing, the test plants were treated at the 2- to 3-leaf stage: the compounds of the present disclosure for testing were dissolved in acetone separately, and added with Tween 80, an emulsifiable oil of 1.5 liters/ha methyl oleate was added as a synergist, and an obtained mixture was diluted with certain water to a certain concentration solution. The solution was sprayed onto the plants using a spray tower. After spraying, the weeds were cultivated in the greenhouse for 3 weeks, and the experimental effects on the weeds were counted. The effective concentrations of the compounds were 10 g/mu, 5 g/mu, and 2.5 g/mu, the experiment was repeated three times, and an average result was taken.

Row | Molecule | Post-emergence herbicidal activity, A. theophrasti (grade) (Abutilon theophrasti; dosage 2.5 g/mu) | Post-emergence herbicidal activity, A. theophrasti (grade) (Abutilon theophrasti; dosage 5 g/mu) | Post-emergence herbicidal activity, A. theophrasti (grade) (Abutilon theophrasti; dosage 10 g/mu) | Post-emergence herbicidal activity, A. retroflexus (grade) (Amaranthus retroflexus; dosage 2.5 g/mu) | Post-emergence herbicidal activity, A. retroflexus (grade) (Amaranthus retroflexus; dosage 5 g/mu) | Post-emergence herbicidal activity, A. retroflexus (grade) (Amaranthus retroflexus; dosage 10 g/mu) | Post-emergence herbicidal activity, E. crusgalli (grade) (Echinochloa crusgalli; dosage 2.5 g/mu) | Post-emergence herbicidal activity, E. crusgalli (grade) (Echinochloa crusgalli; dosage 5 g/mu) | Post-emergence herbicidal activity, E. crusgalli (grade) (Echinochloa crusgalli; dosage 10 g/mu) | Post-emergence herbicidal activity, P. oleracea (grade) (Portulaca oleracea; dosage 2.5 g/mu) | Post-emergence herbicidal activity, P. oleracea (grade) (Portulaca oleracea; dosage 5 g/mu) | Post-emergence herbicidal activity, P. oleracea (grade) (Portulaca oleracea; dosage 10 g/mu) | Post-emergence herbicidal activity, S. viridis (grade) (Setaria viridis; dosage 2.5 g/mu) | Post-emergence herbicidal activity, S. viridis (grade) (Setaria viridis; dosage 5 g/mu) | Post-emergence herbicidal activity, S. viridis (grade) (Setaria viridis; dosage 10 g/mu) | Post-emergence herbicidal activity, Trifoliumre pensL. (grade) (Trifoliumre pensL.; dosage 2.5 g/mu) | Post-emergence herbicidal activity, Trifoliumre pensL. (grade) (Trifoliumre pensL.; dosage 5 g/mu) | Post-emergence herbicidal activity, Trifoliumre pensL. (grade) (Trifoliumre pensL.; dosage 10 g/mu)
1 | CC(C)(C)c1ccc(-c2noc(COc3cc(N4C(=O)C5=C(CCCC5)C4=O)c(F)cc3Cl)n2)cc1 [Compound A26] | 5 (Grade 5: the growth control rate is greater than or equal to 85%) | 5 (Grade 5: the growth control rate is greater than or equal to 85%) | 5 (Grade 5: the growth control rate is greater than or equal to 85%) | 5 (Grade 5: the growth control rate is greater than or equal to 85%) | 5 (Grade 5: the growth control rate is greater than or equal to 85%) | 5 (Grade 5: the growth control rate is greater than or equal to 85%) | 1 (Grade 1: the growth control rate is greater than or equal to 5% and less than 20%) | 2 (Grade 2: the growth control rate is greater than or equal to 20% and less than 40%) | 3 (Grade 3: the growth control rate is greater than or equal to 40% and less than 60%) | 4 (Grade 4: the growth control rate is greater than or equal to 60% and less than 85%) | 5 (Grade 5: the growth control rate is greater than or equal to 85%) | 5 (Grade 5: the growth control rate is greater than or equal to 85%) | 2 (Grade 2: the growth control rate is greater than or equal to 20% and less than 40%) | 3 (Grade 3: the growth control rate is greater than or equal to 40% and less than 60%) | 4 (Grade 4: the growth control rate is greater than or equal to 60% and less than 85%) | 4 (Grade 4: the growth control rate is greater than or equal to 60% and less than 85%) | 5 (Grade 5: the growth control rate is greater than or equal to 85%) | 5 (Grade 5: the growth control rate is greater than or equal to 85%)
2 | 2-(4-chloro-2-fluoro-5-(2-oxo-2-(4-methyl)ethoxy)phenyl)-4,5,6,7-tetrahydro-1H-isoindole-1,3(2H)-dione [Compound C2] | 5 (Grade 5: the growth control rate is greater than or equal to 85%) | 5 (Grade 5: the growth control rate is greater than or equal to 85%) | 5 (Grade 5: the growth control rate is greater than or equal to 85%) | 5 (Grade 5: the growth control rate is greater than or equal to 85%) | 5 (Grade 5: the growth control rate is greater than or equal to 85%) | 5 (Grade 5: the growth control rate is greater than or equal to 85%) | 1 (Grade 1: the growth control rate is greater than or equal to 5% and less than 20%) | 2 (Grade 2: the growth control rate is greater than or equal to 20% and less than 40%) | 3 (Grade 3: the growth control rate is greater than or equal to 40% and less than 60%) | 5 (Grade 5: the growth control rate is greater than or equal to 85%) | 5 (Grade 5: the growth control rate is greater than or equal to 85%) | 5 (Grade 5: the growth control rate is greater than or equal to 85%) | 2 (Grade 2: the growth control rate is greater than or equal to 20% and less than 40%) | 3 (Grade 3: the growth control rate is greater than or equal to 40% and less than 60%) | 4 (Grade 4: the growth control rate is greater than or equal to 60% and less than 85%) | 5 (Grade 5: the growth control rate is greater than or equal to 85%) | 5 (Grade 5: the growth control rate is greater than or equal to 85%) | 5 (Grade 5: the growth control rate is greater than or equal to 85%)
3 | O=C1C2=C(CCCC2)C(=O)N1c1cc(OCc2nc(-c3ccc(Cl)cc3)no2)c(Cl)cc1F [Compound A5] | 5 (Grade 5: the growth control rate is greater than or equal to 85%) | 5 (Grade 5: the growth control rate is greater than or equal to 85%) | 5 (Grade 5: the growth control rate is greater than or equal to 85%) | 5 (Grade 5: the growth control rate is greater than or equal to 85%) | 5 (Grade 5: the growth control rate is greater than or equal to 85%) | 5 (Grade 5: the growth control rate is greater than or equal to 85%) | 1 (Grade 1: the growth control rate is greater than or equal to 5% and less than 20%) | 2 (Grade 2: the growth control rate is greater than or equal to 20% and less than 40%) | 3 (Grade 3: the growth control rate is greater than or equal to 40% and less than 60%) | 5 (Grade 5: the growth control rate is greater than or equal to 85%) | 5 (Grade 5: the growth control rate is greater than or equal to 85%) | 5 (Grade 5: the growth control rate is greater than or equal to 85%) | 2 (Grade 2: the growth control rate is greater than or equal to 20% and less than 40%) | 3 (Grade 3: the growth control rate is greater than or equal to 40% and less than 60%) | 4 (Grade 4: the growth control rate is greater than or equal to 60% and less than 85%) | 5 (Grade 5: the growth control rate is greater than or equal to 85%) | 5 (Grade 5: the growth control rate is greater than or equal to 85%) | 5 (Grade 5: the growth control rate is greater than or equal to 85%)
